{"source": "patent US8334236B2", "about": "“Ring-fused 2-pyridone derivatives and herbicides” (Kumiai Chemical Industry Co., Ltd., priority 2009, dated 2012)"}
{"tested_on": "Echinochloa oryzicola Vasing", "experiment": "Test Example 1: herbicidal effects in paddy field soil treatment", "type": "in vivo", "set-up": "scale not given here", "settings": "1000 g active ingredient per hectare, 21st day after treatment", "method": "(§1) 100-cm^2 plastic pots were filled with paddy field soil. After puddling and leveling, seeds of Echinochloa oryzicola Vasing, Monochoria vaginalis (Burm. f.) Presl var. plantaginea (Roxb.) Solms-Laub., and Scirpus juncoides Roxb. var. ohwianus. T. Koyama were sowed in the pots, and the soil was waterlogged to a water depth of 3 cm. On the next day, a wettable powder formulation prepared according to Formulation Example 1 was diluted with water, and the dilution was added dropwise onto the water surface. The amount of application was an amount equivalent to 1000 g of the active ingredient per hectare. Thereafter, the plants were grown in a greenhouse, and on the 21st day after the treatment, the herbicidal effects were investigated according to the criteria described in Table 71.\n(§2) In addition, comparative compound A, comparative compound B, comparative compound C, and comparative compound D in the tables represent Compound Nos. 70, 34, 32, and 31, respectively, as described in EP-283261. The structural formulas of these compounds are presented below."}
{"smiles": "O=C1CCCC(O)=C1C(=O)c1cc2cccnc2n(-c2cccc(C(F)(F)F)c2)c1=O", "note": "[II-52]", "Herbicidal effect index, Echinochloa oryzicola": 5}
{"smiles": "CC(C)c1ccc2cc(C(=O)C3=C(O)CCCC3=O)c(=O)n(C)c2n1", "note": "[II-126]", "Herbicidal effect index, Echinochloa oryzicola": 3}
{"smiles": "O=C1CCCC(O)=C1C(=O)c1cc2ccc(C(F)(F)F)nc2n(-c2ccccc2)c1=O", "note": "[II-138]", "Herbicidal effect index, Echinochloa oryzicola": 5}
{"smiles": "O=C1CCCC(O)=C1C(=O)c1cc2ccc(C(F)F)nc2n(-c2ccccc2)c1=O", "note": "[II-133]", "Herbicidal effect index, Echinochloa oryzicola": 5}
{"smiles": "O=C1CCCC(O)=C1C(=O)c1cc2cccnc2n(Cc2ccc(Cl)cc2)c1=O", "note": "[II-30]", "Herbicidal effect index, Echinochloa oryzicola": 4}
{"tested_on": "Scirpus juncoides Roxb. var. ohwianus. T. Koyama", "experiment": "Test Example 1: herbicidal effects in paddy field soil treatment", "type": "in vivo", "set-up": "scale not given here", "settings": "1000 g active ingredient per hectare, 21st day after treatment", "method": "as §1, §2"}
{"smiles": "O=C1CCCC(O)=C1C(=O)c1cc2cccnc2n(-c2cccc(C(F)(F)F)c2)c1=O", "note": "[II-52]", "Herbicidal effect index, Scirpus juncoides": 5}
{"smiles": "CC(C)c1ccc2cc(C(=O)C3=C(O)CCCC3=O)c(=O)n(C)c2n1", "note": "[II-126]", "Herbicidal effect index, Scirpus juncoides": 4}
{"smiles": "O=C1CCCC(O)=C1C(=O)c1cc2ccc(C(F)(F)F)nc2n(-c2ccccc2)c1=O", "note": "[II-138]", "Herbicidal effect index, Scirpus juncoides": 5}
{"smiles": "O=C1CCCC(O)=C1C(=O)c1cc2ccc(C(F)F)nc2n(-c2ccccc2)c1=O", "note": "[II-133]", "Herbicidal effect index, Scirpus juncoides": 5}
{"smiles": "O=C1CCCC(O)=C1C(=O)c1cc2cccnc2n(Cc2ccc(Cl)cc2)c1=O", "note": "[II-30]", "Herbicidal effect index, Scirpus juncoides": 5}
{"tested_on": "Monochoria vaginalis (Burm. f.) Presl var. plantaginea (Roxb.) Solms-Laub.", "experiment": "Test Example 1: herbicidal effects in paddy field soil treatment", "type": "in vivo", "set-up": "scale not given here", "settings": "1000 g active ingredient per hectare, 21st day after treatment", "method": "as §1, §2"}
{"smiles": "O=C1CCCC(O)=C1C(=O)c1cc2cccnc2n(-c2cccc(C(F)(F)F)c2)c1=O", "note": "[II-52]", "Herbicidal effect index, Monochoria vaginalis": 5}
{"smiles": "CC(C)c1ccc2cc(C(=O)C3=C(O)CCCC3=O)c(=O)n(C)c2n1", "note": "[II-126]", "Herbicidal effect index, Monochoria vaginalis": 5}
{"smiles": "O=C1CCCC(O)=C1C(=O)c1cc2ccc(C(F)(F)F)nc2n(-c2ccccc2)c1=O", "note": "[II-138]", "Herbicidal effect index, Monochoria vaginalis": 5}
{"smiles": "O=C1CCCC(O)=C1C(=O)c1cc2ccc(C(F)F)nc2n(-c2ccccc2)c1=O", "note": "[II-133]", "Herbicidal effect index, Monochoria vaginalis": 5}
{"smiles": "O=C1CCCC(O)=C1C(=O)c1cc2cccnc2n(Cc2ccc(Cl)cc2)c1=O", "note": "[II-30]", "Herbicidal effect index, Monochoria vaginalis": 5}
{"tested_on": "Setaria viridis", "experiment": "Test Example 2: herbicidal effects in farmland soil treatment", "type": "in vivo", "set-up": "scale not given here", "settings": "1000 g active ingredient per hectare, 21st day after treatment"}
{"smiles": "O=C1CCCC(O)=C1C(=O)c1cc2cccnc2n(-c2cccc(C(F)(F)F)c2)c1=O", "note": "[II-52]", "Herbicidal effect index, Setaria viridis": 5}
{"smiles": "O=C1CCCC(O)=C1C(=O)c1cc2ccc(C(F)F)nc2n(-c2ccccc2)c1=O", "note": "[II-133]", "Herbicidal effect index, Setaria viridis": 5}
{"tested_on": "Setaria viridis", "experiment": "Test Example 3: herbicidal effects in farmland foliar treatment", "type": "in vivo", "set-up": "scale not given here", "settings": "1000 g active ingredient per hectare, 14th day after treatment"}
{"smiles": "O=C1CCCC(O)=C1C(=O)c1cc2cccnc2n(-c2cccc(C(F)(F)F)c2)c1=O", "note": "[II-52]", "Herbicidal effect index, Setaria viridis": 5}
{"smiles": "O=C1CCCC(O)=C1C(=O)c1cc2ccc(C(F)(F)F)nc2n(-c2ccccc2)c1=O", "note": "[II-138]", "Herbicidal effect index, Setaria viridis": 5}
{"smiles": "O=C1CCCC(O)=C1C(=O)c1cc2ccc(C(F)F)nc2n(-c2ccccc2)c1=O", "note": "[II-133]", "Herbicidal effect index, Setaria viridis": 5}
{"tested_on": "Echinochloa crus-galli (L.) P. Beauv. var. crus-galli", "experiment": "Test Example 3: herbicidal effects in farmland foliar treatment", "type": "in vivo", "set-up": "scale not given here", "settings": "1000 g active ingredient per hectare, 14th day after treatment", "method": "(§3) 80-cm^2 plastic pots were filled with farmland soil. Seeds of Echinochloa crus-galli (L.) P. Beauv. var. crus-galli, Abutilon theophrasti medicus, and Amaranthus retroflexus were sowed in the pots, and the plants were grown for two weeks in a greenhouse. A wettable powder formulation prepared according to Formulation Example 1 was diluted with water, and the dilution was applied by foliar treatment by spraying with a small sprayer over the whole plant from the upper part, in an amount equivalent to 1000 liters per hectare, such that 1000 g of the active ingredient was applied per hectare. Thereafter, the plants were grown in a greenhouse, and on the 14th day after the treatment, the herbicidal effects were investigated according to the criteria described in Table 71 shown above."}
{"smiles": "O=C1CCCC(O)=C1C(=O)c1cc2cccnc2n(-c2cccc(C(F)(F)F)c2)c1=O", "note": "[II-52]", "Herbicidal effect index, Echinochloa crus-galli": 5}
{"smiles": "O=C1CCCC(O)=C1C(=O)c1cc2ccc(C(F)(F)F)nc2n(-c2ccccc2)c1=O", "note": "[II-138]", "Herbicidal effect index, Echinochloa crus-galli": 5}
{"smiles": "O=C1CCCC(O)=C1C(=O)c1cc2ccc(C(F)F)nc2n(-c2ccccc2)c1=O", "note": "[II-133]", "Herbicidal effect index, Echinochloa crus-galli": 5}
{"tested_on": "Amaranthus retroflexus", "experiment": "Test Example 3: herbicidal effects in farmland foliar treatment", "type": "in vivo", "set-up": "scale not given here", "settings": "1000 g active ingredient per hectare, 14th day after treatment", "method": "as §3"}
{"smiles": "O=C1CCCC(O)=C1C(=O)c1cc2cccnc2n(-c2cccc(C(F)(F)F)c2)c1=O", "note": "[II-52]", "Herbicidal effect index, Amaranthus retroflexus": 5}
{"smiles": "O=C1CCCC(O)=C1C(=O)c1cc2ccc(C(F)(F)F)nc2n(-c2ccccc2)c1=O", "note": "[II-138]", "Herbicidal effect index, Amaranthus retroflexus": 3}
{"smiles": "O=C1CCCC(O)=C1C(=O)c1cc2ccc(C(F)F)nc2n(-c2ccccc2)c1=O", "note": "[II-133]", "Herbicidal effect index, Amaranthus retroflexus": 5}
{"tested_on": "Abutilon theophrasti medicus", "experiment": "Test Example 3: herbicidal effects in farmland foliar treatment", "type": "in vivo", "set-up": "scale not given here", "settings": "1000 g active ingredient per hectare, 14th day after treatment", "method": "as §3"}
{"smiles": "O=C1CCCC(O)=C1C(=O)c1cc2cccnc2n(-c2cccc(C(F)(F)F)c2)c1=O", "note": "[II-52]", "Herbicidal effect index, Abutilon theoprasti": 5}
{"smiles": "O=C1CCCC(O)=C1C(=O)c1cc2ccc(C(F)(F)F)nc2n(-c2ccccc2)c1=O", "note": "[II-138]", "Herbicidal effect index, Abutilon theoprasti": 5}
{"smiles": "O=C1CCCC(O)=C1C(=O)c1cc2ccc(C(F)F)nc2n(-c2ccccc2)c1=O", "note": "[II-133]", "Herbicidal effect index, Abutilon theoprasti": 5}
{"tested_on": "Amaranthus retroflexus", "experiment": "Test Example 2: herbicidal effects in farmland soil treatment", "type": "in vivo", "set-up": "scale not given here", "settings": "1000 g active ingredient per hectare, 21st day after treatment", "method": "as §3, with “of” for “of Echinochloa crus-galli (L.) P. Beauv. var. crus-galli,”, “medicus” for “medicus,”, “soil was covered.” for “the plants were grown for two weeks in a greenhouse.”, “uniformly sprayed on the soil surface” for “applied by foliar treatment by spraying”, “sprayer,” for “sprayer over the whole plant from the upper part,”, “21st” for “14th”"}
{"smiles": "O=C1CCCC(O)=C1C(=O)c1cc2cccnc2n(-c2cccc(C(F)(F)F)c2)c1=O", "note": "[II-52]", "Herbicidal effect index, Amaranthus retroflexus": 5}
{"smiles": "O=C1CCCC(O)=C1C(=O)c1cc2ccc(C(F)F)nc2n(-c2ccccc2)c1=O", "note": "[II-133]", "Herbicidal effect index, Amaranthus retroflexus": 5}
{"tested_on": "Abutilon theophrasti medicus", "experiment": "Test Example 2: herbicidal effects in farmland soil treatment", "type": "in vivo", "set-up": "scale not given here", "settings": "1000 g active ingredient per hectare, 21st day after treatment", "method": "as §3, with “of” for “of Echinochloa crus-galli (L.) P. Beauv. var. crus-galli,”, “medicus” for “medicus,”, “soil was covered.” for “the plants were grown for two weeks in a greenhouse.”, “uniformly sprayed on the soil surface” for “applied by foliar treatment by spraying”, “sprayer,” for “sprayer over the whole plant from the upper part,”, “21st” for “14th”"}
{"smiles": "O=C1CCCC(O)=C1C(=O)c1cc2cccnc2n(-c2cccc(C(F)(F)F)c2)c1=O", "note": "[II-52]", "Herbicidal effect index, Abutilon thophrasti": 5}
{"smiles": "O=C1CCCC(O)=C1C(=O)c1cc2ccc(C(F)F)nc2n(-c2ccccc2)c1=O", "note": "[II-133]", "Herbicidal effect index, Abutilon thophrasti": 5}
{"tested_on": "Echinochloa crus-galli", "experiment": "Test Example 2: herbicidal effects in farmland soil treatment", "type": "in vivo", "set-up": "scale not given here", "settings": "1000 g active ingredient per hectare, 21st day after treatment"}
{"smiles": "O=C1CCCC(O)=C1C(=O)c1cc2cccnc2n(-c2cccc(C(F)(F)F)c2)c1=O", "note": "[II-52]", "Herbicidal effect index, Echinochloa crus-galli": 5}
{"smiles": "O=C1CCCC(O)=C1C(=O)c1cc2ccc(C(F)F)nc2n(-c2ccccc2)c1=O", "note": "[II-133]", "Herbicidal effect index, Echinochloa crus-galli": 5}
